The numbers were not newly measured in US20250161269A1 (Celmatix Inc., priority 2022, published 2025), which cites them from elsewhere.

One data set addresses 5-HT2B receptor (Homo sapiens, UniProt P41595). Particulars: antagonist; cited from earlier work.
The conditions of data set [1]: in vivo; cited from earlier work.
The target of another data set is serum albumin (Homo sapiens, UniProt P02768). Conditions: peripheral circulation; cited from earlier work.
In a further data set the test system is PCOS patients. Conditions: PCOS patients or patients with metabolic disturbances; cited from earlier work.
A further data set relates to endometriosis patients. Particulars: cited from earlier work.
Another data set concerns endometriosis lesion. Conditions: animals; cited from earlier work.
The subject of a further data set is PCOS animal models. Particulars: cited from earlier work.
In data set [2] the test system is chemotherapy tissue damage animal models. Conditions: cited from earlier work.
Data set [3] deals with macrophages (RAW264.7 or primary cells). Conditions: macrophages treated with LPS; cited from earlier work.
The target of data set [4] is T1, MT1 (Homo sapiens, UniProt P48039). Particulars: cited from earlier work.
For data set [5], the target named is T2, MT2 (Homo sapiens, UniProt P49286).
T2 sequence (P49286 1-362): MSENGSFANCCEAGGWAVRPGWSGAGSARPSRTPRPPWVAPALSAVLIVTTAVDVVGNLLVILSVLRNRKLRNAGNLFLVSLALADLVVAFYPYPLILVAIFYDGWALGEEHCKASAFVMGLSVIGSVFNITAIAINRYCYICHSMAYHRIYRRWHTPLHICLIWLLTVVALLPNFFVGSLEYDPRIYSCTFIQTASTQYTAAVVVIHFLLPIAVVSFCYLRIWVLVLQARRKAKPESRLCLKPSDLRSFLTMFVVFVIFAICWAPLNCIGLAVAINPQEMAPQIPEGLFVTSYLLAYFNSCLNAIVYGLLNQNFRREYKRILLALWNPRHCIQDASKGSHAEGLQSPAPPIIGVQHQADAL
Conditions: cited from earlier work.

The target of data set [6] is T1, MT1. Also noted: host or cells: CHO-K1 cells (as the earlier reading words it). Particulars: CHO-K1 cells; cited from earlier work.
Data set [7] deals with T2, MT2. Also noted: host or cells: CHO-K1 cells (as the earlier reading words it). Conditions: CHO-K1 cells; cited from earlier work.
Data set [8] deals with T1, MT1. Conditions: NIH-3T3 cells; cited from earlier work.

Where two headings read alike, the source gives them in different places.

T1 sequence (P48039 whole entry): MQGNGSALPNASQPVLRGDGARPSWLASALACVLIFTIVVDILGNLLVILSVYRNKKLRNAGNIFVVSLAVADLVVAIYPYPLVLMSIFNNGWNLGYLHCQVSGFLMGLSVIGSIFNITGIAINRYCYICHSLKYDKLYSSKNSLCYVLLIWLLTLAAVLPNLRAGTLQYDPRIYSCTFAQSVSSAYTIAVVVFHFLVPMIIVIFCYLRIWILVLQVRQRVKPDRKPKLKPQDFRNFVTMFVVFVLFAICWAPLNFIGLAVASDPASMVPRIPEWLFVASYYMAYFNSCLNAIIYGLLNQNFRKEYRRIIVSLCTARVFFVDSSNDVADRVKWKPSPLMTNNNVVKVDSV
Sequence of 5-HT2B receptor (P41595 whole entry): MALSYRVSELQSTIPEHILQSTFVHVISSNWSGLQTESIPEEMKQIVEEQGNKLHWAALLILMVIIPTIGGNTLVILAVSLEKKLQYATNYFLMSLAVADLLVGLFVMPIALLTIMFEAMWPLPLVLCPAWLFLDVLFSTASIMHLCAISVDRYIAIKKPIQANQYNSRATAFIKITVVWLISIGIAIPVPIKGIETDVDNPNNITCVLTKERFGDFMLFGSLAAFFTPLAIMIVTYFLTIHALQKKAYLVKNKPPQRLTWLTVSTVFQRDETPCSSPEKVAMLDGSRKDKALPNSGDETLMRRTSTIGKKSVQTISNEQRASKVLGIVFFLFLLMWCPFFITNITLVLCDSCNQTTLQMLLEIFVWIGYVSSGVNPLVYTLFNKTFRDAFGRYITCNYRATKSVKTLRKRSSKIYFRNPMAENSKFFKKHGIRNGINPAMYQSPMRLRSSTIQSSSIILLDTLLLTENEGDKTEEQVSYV
Sequence of serum albumin (P02768 25-609): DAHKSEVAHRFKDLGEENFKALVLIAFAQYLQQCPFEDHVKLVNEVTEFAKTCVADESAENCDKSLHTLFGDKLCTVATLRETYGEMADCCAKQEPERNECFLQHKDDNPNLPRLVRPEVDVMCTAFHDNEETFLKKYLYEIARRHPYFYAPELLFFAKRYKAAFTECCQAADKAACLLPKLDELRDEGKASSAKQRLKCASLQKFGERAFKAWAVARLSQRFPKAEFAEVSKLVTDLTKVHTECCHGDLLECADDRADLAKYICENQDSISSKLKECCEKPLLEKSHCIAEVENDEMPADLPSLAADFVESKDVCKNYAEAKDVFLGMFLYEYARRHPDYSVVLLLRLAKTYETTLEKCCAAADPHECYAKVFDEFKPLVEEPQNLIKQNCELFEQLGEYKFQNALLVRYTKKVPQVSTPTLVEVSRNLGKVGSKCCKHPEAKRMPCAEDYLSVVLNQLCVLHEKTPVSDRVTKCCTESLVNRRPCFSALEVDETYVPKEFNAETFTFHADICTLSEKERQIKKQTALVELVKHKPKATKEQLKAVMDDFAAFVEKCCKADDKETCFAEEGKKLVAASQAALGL

With `COc1ccc2cccc(CCNC(C)=O)c2c1` [Agomelatine], at 5-HT2B receptor, the Ki (usually the equilibrium dissociation constant of an inhibitor or competing ligand from its target) was 660 nM.
Regarding `COc1ccc2[nH]cc(CCNC(C)=O)c2c1` [Melatonin, N-acetyl-5-methoxytryptamine], in data set [1], the “half-life inside the body” value is 20 to 40 min. Besides, the “bound to serum albumin” value on serum albumin is reported as “approximately 70%”. Further, the “effect on hyperandrogenism, inflammation, ART outcome, and metabolic function” value with PCOS patients is “beneficial effect”. In addition, in the data set with endometriosis patients, the “effect on pelvic pain” value is on record as “beneficial effect”. For the same molecule, the endometriosis lesion regression result in the data set on endometriosis lesion is “promotes endometriosis lesion regression”. Besides, the “metabolic and reproductive traits” value in the data set on PCOS animal models was “improve metabolic and reproductive traits”; in [2], “mitigate and protect metabolic and reproductive traits”. Moreover, the “LPS-induced expression of pro-inflammatory molecules (e.g. TNFα, IL1B, IL6, IL8)” value in data set [3] was “reduces their LPS-induced expression”.
`COc1ccc2[nH]cc(CCNC(=O)c3cc(=O)cco3)c2c1` [Piromelatine]: the Ki at MT1 [4] is 0.022 nM; at MT2 [5] it was 0.034 nM.
On to `CCC(=O)NCC[C@@H]1CCc2ccc3c(c21)CCO3` [Ramelteon], for which the Ki at MT2 [5] is 0.11 nM; on MT1 [6] it was 0.118 nM; at MT2 [7] it was 0.115 nM.
Regarding `COc1cc2c(C(C)CNC(C)=O)c[nH]c2cc1Cl` (stereo not drawn) [TIK-301, beta-methyl-6-chloromelatonin], the Ki is 0.081 nM at MT1 [4] and 0.042 nM on MT2 [5].
With `CCC(=O)NC[C@@H]1C[C@H]1c1cccc2c1CCO2` [Tasimelteon], the Ki is 0.3 nM on MT1 [4], 0.304 nM at MT1 [8], 0.35 nM at MT1 [6] and 0.17 nM at MT2 [7].
